Bounds are passed on as bounds.

For data set [1], the system named is RKO human colon adenocarcinoma cells (RKOp27), uninduced. Kind of data set: Alamar Blue cell viability assay, RKO p27 uninduced (proliferating cells). Particulars: 72 hours, read-out: Anti-proliferative/cytotoxic activity, -log IC50, RKO p27 uninduced (converted). Format: cell-based. The protocol:
The anti-proliferative/cytotoxic activity of the compounds described herein can be tested on subclones of RKO human colon adenocarcinoma cells (Schmidt et al., Oncogene 19, 2423-2429; 2000) using the Alamar Blue cell viability assay (described in O'Brien et al. Eur J Biochem 267, 5421-5426, 2000). The compounds are dissolved as 10 mM solutions in DMSO and subsequently diluted in semi-logarithmic steps. DMSO dilutions are further diluted 1:100 into Dulbecco's modified Eagle's medium (DMEM) containing 10% fetal calf serum to a final concentration twice as much as the final concentration in the test. RKO subclones are seeded into 96 well flat bottom plates at a density of 4000 cells per well in a volume of 50 μl per well. 24 hours after seeding the 50 μl each of the compound dilutions in DMEM medium are added into each well of the 96 well plate. Each compound dilution is tested as quadruplicates. Wells containing untreated control cells are filled with 50 μl DMEM medium containing 1% DMSO. […] To determine the viability of the cells, 10 μl of an Alamar Blue solution (Biosource) are added and the fluorescence is measured at an extinction of 544 nm and an emission of 590 nm. […] Viabilities are expressed as % values.
The corresponding IC50 values of the compounds for anti-proliferative/cytotoxic activity are determined from the concentration-effect curves.
To determine the cell cycle specific mode of action, subclones of RKO colon adenocarcinoma cells (RKOp27 as described by Schmidt et al. in Oncogene 19, 2423-2429; 2000) are seeded into 96 well flat bottom plates at a density of 16000 cells per well in a volume of 50 μl per well in DMEM growth medium with 10% FCS containing 10 μM Ponasterone A. 24 hours after seeding the 50 μl each of the compound dilutions in DMEM medium are added into each well of the 96-well plate. […] To determine the viability of the cells, 10 μl of an Alamar Blue solution (Biosource) are added and the fluorescence is measured at an extinction of 544 nm and an emission of 590 nm. […] Viabilities are expressed as % values. […]

The subject of data set [2] is RKO colon adenocarcinoma cells (RKOp27), arrested by p27Kip1 induced by Ponasterone A. Description: Alamar Blue cell viability assay, RKO p27 induced by Ponasterone A (arrested cells). Particulars: Homo sapiens, RKO p27 induced (10 μM Ponasterone A), 72 hours, read-out: Anti-proliferative/cytotoxic activity, -log IC50, RKO p27 induced (converted). Type of data set: cell-based. The protocol:
To determine the cell cycle specific mode of action, subclones of RKO colon adenocarcinoma cells (RKOp27 as described by Schmidt et al. in Oncogene 19, 2423-2429; 2000) are seeded into 96 well flat bottom plates at a density of 16000 cells per well in a volume of 50 μl per well in DMEM growth medium with 10% FCS containing 10 μM Ponasterone A. 24 hours after seeding the 50 μl each of the compound dilutions in DMEM medium are added into each well of the 96-well plate. Each compound dilution is tested as quadruplicates. Wells containing untreated control cells are filled with 50 μl DMEM medium containing 1% DMSO. The cells are then incubated with the substances for 72 hours at 37° C. in a humidified atmosphere containing 5% carbon dioxide. To determine the viability of the cells, 10 μl of an Alamar Blue solution (Biosource) are added and the fluorescence is measured at an extinction of 544 nm and an emission of 590 nm. For the calculation of the cell viability the emission value from untreated cells is set as 100% viability and the emission rates of treated cells are set in relation to the values of untreated cells. Viabilities are expressed as % values. Viability is compared of proliferating cells grown in the absence of the inducer Ponasterone A, versus viability of cells arrested by the expression of ectopic p27Kip1 induced by Ponasterone A.
For orientation: Alamar Blue is a resazurin reagent that responds to reducing activity.

In data set [3] the test system is RKOp27 colon cancer cells. Kind of data set: Induction of apoptosis, Cell death detection ELISA. Format: cell-based. The conditions noted are these: Homo sapiens, 24 hours, relative to 50 μM cisplatin = 100 cpu, read-out: Apoptosis Induction, -log EC50 (converted). The protocol: The induction of apoptosis can be measured by using a Cell death detection ELISA (Roche Biochemicals, Mannheim, Germany). RKOp27 colon cancer cells are seeded into 96 well flat bottom plates at a density of 10000 cells per well in a volume of 50 μl RPMI medium (containing 10% fetal calf serum) per well. 24 hours after seeding the 50 μl each of the compound dilutions in RPMI medium are added into each well of the 96 Well plate. Each compound dilution is tested at least as triplicates. Wells containing untreated control cells are filled with 50 μl RPMI medium containing 1% DMSO. The cells are then incubated with the substances for 24 hours at 37° C. in a humidified atmosphere containing 5% carbon dioxide. As a positive control for the induction of apoptosis, cells are treated with 50 μM Cisplatin (Gry Pharmaceuticals, Kirchzarten, Germany). Medium is then removed and the cells are lysed in 200 μl lysis buffer. After centrifugation as described by the manufacturer, 10 μl of cell lysate is processed as described in the protocol. The degree of apoptosis is calculated as follows: The absorbance at 405 nm obtained with lysates from cells treated with 50 μM cisplatin is set as 100 cpu (cisplatin units), while an absorbance at 405 nm of 0.0 was set as 0.0 cpu. The degree of apoptosis is expressed as cpu in relation to the value of 100 cpu reached with the lysates obtained from cells treated with 50 μM cisplatin. The corresponding EC50 values of the compounds for apoptosis inducing activity are determined from the concentration-effect curves.

Data set [4] concerns NCl-H460 non-small cell lung cancer cells. Description: Mitotic spindle malformation by confocal laser scanning microscopy. Type of data set: cell-based. The conditions noted are these: 1 μM, 24 hours, anti-alpha tubulin and Hoechst 33342 staining. The protocol: Experimental perturbation of Eg5 function causes a characteristic malformation of the mitotic spindle, which can be examined by confocal laser scanning microscopy. NCl-H460 non-small cell lung cancer cells are grown overnight on glass cover slips (Nunc™ Lab-Tek™ Chamber Slides) in 1800 μl DMEM medium containing 10% fetal calf serum. The test compounds are dissolved as 10 mM solutions in DMSO. Appropriate DMSO dilutions of the test compounds are further diluted 1:10 into DMEM medium containing 10% fetal calf serum to a final concentration ten times as much as the final concentration in the test. 24 hours after seeding, 200 μl of the compound dilutions in DMEM medium are added into each well of the cover slip. As a control, 200 μl DMEM medium containing 10% DMSO are added. 24 hours after incubation with the test compounds, the cells are washed with PBS, and fixed with 3.7% formaldehyde in H2O for 20 min. at 37° C. Subsequently, cells are washed with PBS and incubated with 0.1% Triton X-100 in a buffer containing 1.471 mM KH2PO4, 8.504 mM Na2HPO4, 137 mM NaCl, 1.325 mM CaCl2, 2.685 mM KCl, 0.542 mM MgCl2, pH 7.2 for 15 min. at room temperature. […]

`CN1C(=O)N2[C@H](c3cccc(O)c3)c3[nH]c4ccccc4c3C[C@@]2(C)C1=O` [Example 2, (3aS,10R)-10-(3-Hydroxy-phenyl)-2,3a-dimethyl-3a,4,9,10-tetrahydro-2,9,10a-triaza-cyclopenty[b]fluorene-1,3-dione]: the IC50 in data set [1] was at most 631 nM; in data set [2], at least 100000 nM. The EC50 in data set [3] was at most 2510 nM.
The compound `CN1C(=O)N2C(c3cccc(O)c3)c3[nH]c4ccccc4c3CC2(C)C1=O` (racemic) [Example 1, (±)-(3aSR,10RS)-10-(3-Hydroxy-phenyl)-2,3a-dimethyl-3a,4,9,10-tetrahydro-2,9,10a-triaza-cyclopenty[b]fluorene-1,3-dione] yielded a melting point of 299 to 305 °C. Further, the IC50 in data set [1] is at most 631 nM. The IC50 in data set [2] was at least 100000 nM. For the same compound, the EC50 in data set [3] is at most 2510 nM. The “Mitotic arrest / mitotic spindle phenotype” value in data set [4] is “significant enrichment of cells arrested in mitosis”.
With `CN1C(=O)N2[C@H](c3cccc(O)c3)c3sc4ccccc4c3C[C@@]2(C)C1=O` (racemic) [Example 5, (3aSR,10RS)-10-(3-Hydroxy-phenyl)-2,3a-dimethyl-4,10-dihydro-3aH-9-thia-2,10a-diaza-cyclopenta[b]fluorene-1,3-dione], the EC50 in data set [3] was at most 2510 nM.
As for `CN1C(=O)C2Cc3c(sc4ccccc34)C(c3cccc(O)c3)N2C1=O` [Example 3, (3aS,10R)-10-(3-Hydroxy-phenyl)-2-methyl-4,10-dihydro-3aH-9-thia-2,10-diaza-cyclopenta[b]fluorene-1,3-dione], the melting point is 213.3 to 216.4 °C. Besides, the IC50 in data set [1] was at most 631 nM. Further, the IC50 in data set [2] is at least 100000 nM. Moreover, in data set [3], the EC50 was at most 2510 nM. Moreover, the “Mitotic arrest / mitotic spindle phenotype” value in data set [4] is “significant enrichment of cells arrested in mitosis”.

The EC50 is the concentration needed to bring the measured effect to its halfway point. For orientation: melting point means the temperature of the solid-liquid transition.
